Experimental data as given in patent US12281149B2, “Modulators of G-protein coupled receptors” (priority 2021, dated 2025).
*1 amine or outer side, *2 acyl side, *3 side chain or, on linkers, in order; H or OH if unused. Where a SMILES comes first, the peptide text is derived from it. Side-chain parts run from the residue outwards. [ ]: non-standard residue; d: D form. The star is where a group is joined. Isobutyryl(2-(3-CN-5-F-Ph)) = CC(C)(C(=O)*)c1cc(F)cc(C#N)c1; Cyclopropanecarbonyl(1-Ph) = O=C(C1(c2ccccc2)CC1)*; C20 diacid = O=C(O)CCCCCCCCCCCCCCCCCCC(=O)*; αMePhe(2-F) = C[C@](N)(Cc1ccccc1F)C(=O)O; γGlu = O=C(O)[C@H](CCC(=O)[*:2])N[*:1]; X53 = CC(C)(C(=O)*)c1cc(F)cc(F)c1; X62 = O=C(C1(c2cccc(Cl)c2)CCCC1)*; X65 = CC(C)(C(=O)*)c1cc(N)cc(F)c1; αMeL = CC(C)C[C@](C)(N)C(=O)O; Orn = NCCC[C@H](N)C(=O)O; AEEA = NCCOCCOCC(=O)O; Aib = CC(C)(N)C(=O)O; βAla = NCCC(=O)O

What was measured:
Assay type in all cases: cell-based
[1] = biological target: T1, GIP receptor (Homo sapiens, UniProt P48546); experiment: HitHunter cAMP assay, GIP receptor; conditions: for EC50: CHO cells stably expressing GIP receptor, cAMP accumulation, 30 min, read-out: EC50 GIP-1R; for Emax: CHO cells, cAMP, normalized to maximum signal from GIP (high) and DMSO (low), read-out: Emax GIP-1R
T1 sequence (P48546 22-466): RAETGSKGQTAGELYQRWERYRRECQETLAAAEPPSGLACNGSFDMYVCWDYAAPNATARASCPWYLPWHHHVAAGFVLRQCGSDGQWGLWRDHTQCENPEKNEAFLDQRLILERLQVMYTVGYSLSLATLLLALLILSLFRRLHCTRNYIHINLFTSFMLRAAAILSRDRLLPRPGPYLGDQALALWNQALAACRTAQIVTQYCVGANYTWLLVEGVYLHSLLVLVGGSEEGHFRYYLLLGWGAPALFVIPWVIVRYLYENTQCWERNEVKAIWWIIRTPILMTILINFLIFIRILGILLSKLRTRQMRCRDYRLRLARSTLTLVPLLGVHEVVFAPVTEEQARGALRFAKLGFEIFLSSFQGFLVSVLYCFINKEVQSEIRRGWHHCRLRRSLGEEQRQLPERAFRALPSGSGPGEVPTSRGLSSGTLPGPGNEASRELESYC

[2] = biological target: T1, GIP receptor; experiment: PathHunter β-arrestin assay, GIP receptor; design: host or cells: PathHunter CHO-K1 GIPR β-Arrestin Cell Line; conditions: β-arrestin-2 recruitment, PathHunter CHO-K1 GIPR β-Arrestin Cell Line, 90 min at 37° C.; normalized to GIP; read-out: GIPR β Arrestin EC50
[3] = biological target: T2, GLP-1 receptor (Homo sapiens, UniProt P43220); experiment: PathHunter β-arrestin assay, GLP-1 receptor; design: host or cells: PathHunter CHO-K1 GLP1R β-Arrestin Cell Line; conditions: β-arrestin-2 recruitment, PathHunter CHO-K1 GLP1R β-Arrestin Cell Line, 90 min at 37° C.; normalized to GLP-1; read-out: GLP-1R β Arrestin EC50
T2 sequence (P43220 24-463): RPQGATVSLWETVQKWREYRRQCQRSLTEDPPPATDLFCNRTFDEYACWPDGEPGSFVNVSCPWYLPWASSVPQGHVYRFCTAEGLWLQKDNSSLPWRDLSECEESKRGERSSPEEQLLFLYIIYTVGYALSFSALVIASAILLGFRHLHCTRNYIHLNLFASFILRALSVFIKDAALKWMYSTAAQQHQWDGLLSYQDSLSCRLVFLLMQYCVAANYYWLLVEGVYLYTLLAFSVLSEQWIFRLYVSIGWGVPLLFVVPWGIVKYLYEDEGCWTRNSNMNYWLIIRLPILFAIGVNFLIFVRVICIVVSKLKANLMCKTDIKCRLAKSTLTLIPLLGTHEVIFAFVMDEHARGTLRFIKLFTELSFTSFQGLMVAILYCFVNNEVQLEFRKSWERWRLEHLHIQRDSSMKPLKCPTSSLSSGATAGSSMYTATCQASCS

[4] = biological target: T2, GLP-1 receptor; experiment: HitHunter cAMP assay, GLP-1 receptor; conditions: for EC50: CHO cells stably expressing human GLP-1 receptor, cAMP accumulation, 30 min, read-out: EC50 GLP-1R; for Emax: CHO cells, cAMP, normalized to maximum signal from GLP-1 (high) and DMSO (low), read-out: Emax GLP-1R

Structure (SMILES) | EC50 [1] [nM] | Emax [1] [%] | EC50 [2] [nM] | EC50 [3] [nM] | EC50 [4] [nM] | Emax [4] [%]
CC[C@H](C)[C@H](NC(=O)[C@H](CC(C)C)NC(=O)[C@H](Cc1ccc(O)cc1)NC(=O)[C@@H](CCC(=O)O)NC(=O)[C@@H](NC(=O)[C@H](Cc1ccccc1)NC(=O)[C@H](CCC(=O)O)NC(=O)C(C)(C)NC(=O)[C@H](CCC(N)=O)NC(=O)[C@H](C)NC(=O)[C@H](CCCCNC(=O)COCCOCCNC(=O)COCCOCCNC(=O)CC[C@H](NC(=O)CCCCCCCCCCCCCCCCCCC(=O)O)C(=O)O)NC(=O)[C@H](CCCN)NC(=O)[C@H](CC(=O)O)NC(=O)[C@H](CC(C)C)NC(=O)[C@](C)(CC(C)C)NC(=O)[C@@H](NC(=O)[C@H](CO)NC(=O)[C@H](Cc1ccc(O)cc1)NC(=O)[C@H](CC(=O)O)NC(=O)[C@H](CO)NC(=O)[C@@H](NC(=O)[C@H](Cc1ccccc1)NC(=O)[C@@H](NC(=O)CNC(=O)[C@H](CCC(=O)O)NC(=O)CCNC(=O)C(C)(C)c1cc(F)cc(C#N)c1)[C@@H](C)O)[C@@H](C)O)[C@@H](C)CC)[C@@H](C)CC)C(=O)N[C@@H](CCC(=O)O)C(=O)NCC(=O)NCC(=O)N1CCC[C@H]1C(=O)N[C@@H](CO)C(=O)N[C@@H](CO)C(=O)NCC(=O)N[C@@H](C)C(=O)N1CCC[C@H]1C(=O)N1CCC[C@H]1C(=O)N1CCC[C@H]1C(=O)N[C@@H](CO)C(N)=O [Compound 134] ({Isobutyryl(2-(3-CN-5-F-Ph))-βAla}-EGTFTSDYSI[αMeL]LD[Orn]K([AEEA-AEEA-γGlu-C20 diacid])AQ[Aib]EFI[dE]YLIEGGPSSGAPPPS-NH2) | 1 to 10 | 109 | > 1000 | > 1000 | 0.1 to 1 | 102
CC[C@H](C)[C@H](NC(=O)[C@H](CC(C)C)NC(=O)[C@H](Cc1c[nH]c2ccccc12)NC(=O)[C@H](CCC(N)=O)NC(=O)[C@@H](NC(=O)[C@H](Cc1ccccc1)NC(=O)[C@H](C)NC(=O)[C@H](CCCCNC(=O)COCCOCCNC(=O)COCCOCCNC(=O)CC[C@H](NC(=O)CCCCCCCCCCCCCCCCCCC(=O)O)C(=O)O)NC(=O)[C@H](CCC(N)=O)NC(=O)[C@H](C)NC(=O)[C@@H](NC(=O)[C@H](CCCCN)NC(=O)[C@H](CC(=O)O)NC(=O)[C@H](CC(C)C)NC(=O)C(C)(C)NC(=O)[C@@H](NC(=O)[C@H](CO)NC(=O)[C@H](Cc1ccc(O)cc1)NC(=O)[C@H](CC(=O)O)NC(=O)[C@H](CO)NC(=O)[C@@H](NC(=O)[C@H](Cc1ccccc1)NC(=O)[C@@H](NC(=O)CNC(=O)[C@H](CCC(=O)O)NC(=O)CCNC(=O)C1(c2ccccc2)CC1)[C@@H](C)O)[C@@H](C)O)[C@@H](C)CC)[C@@H](C)CC)C(C)C)C(=O)N[C@@H](C)C(=O)NCC(=O)NCC(=O)N1CCC[C@H]1C(=O)N[C@@H](CO)C(=O)N[C@@H](CO)C(=O)NCC(=O)N[C@@H](C)C(=O)N1CCC[C@H]1C(=O)N1CCC[C@H]1C(=O)N1CCC[C@H]1C(=O)N[C@@H](CO)C(N)=O [Compound 199] ({Cyclopropanecarbonyl(1-Ph)-βAla}-EGTFTSDYSI[Aib]LDKIAQK([AEEA-AEEA-γGlu-C20 diacid])AFVQWLIAGGPSSGAPPPS-NH2) | 10 to 100 | 102 | > 1000 | > 1000 | 1 to 10 | 100
CC[C@H](C)[C@H](NC(=O)[C@H](CC(C)C)NC(=O)[C@H](Cc1c[nH]c2ccccc12)NC(=O)[C@H](CCC(N)=O)NC(=O)[C@@H](NC(=O)[C@H](Cc1ccccc1)NC(=O)[C@H](C)NC(=O)[C@H](CCCCNC(=O)COCCOCCNC(=O)COCCOCCNC(=O)CC[C@H](NC(=O)CCCCCCCCCCCCCCCCCCC(=O)O)C(=O)O)NC(=O)[C@H](CCC(N)=O)NC(=O)[C@H](C)NC(=O)[C@@H](NC(=O)[C@H](CCCCN)NC(=O)[C@H](CC(=O)O)NC(=O)[C@H](CC(C)C)NC(=O)C(C)(C)NC(=O)[C@@H](NC(=O)[C@H](CO)NC(=O)[C@H](Cc1ccc(O)cc1)NC(=O)[C@H](CC(=O)O)NC(=O)[C@H](CO)NC(=O)[C@@H](NC(=O)[C@H](Cc1ccccc1)NC(=O)[C@@H](NC(=O)CNC(=O)[C@H](CCC(=O)O)NC(=O)CCNC(=O)C(C)(C)c1cc(N)cc(F)c1)[C@@H](C)O)[C@@H](C)O)[C@@H](C)CC)[C@@H](C)CC)C(C)C)C(=O)N[C@@H](C)C(=O)NCC(=O)NCC(=O)N1CCC[C@H]1C(=O)N[C@@H](CO)C(=O)N[C@@H](CO)C(=O)NCC(=O)N[C@@H](C)C(=O)N1CCC[C@H]1C(=O)N1CCC[C@H]1C(=O)N1CCC[C@H]1C(=O)N[C@@H](CO)C(N)=O [Compound 133] ({X65-βAla}-EGTFTSDYSI[Aib]LDKIAQK([AEEA-AEEA-γGlu-C20 diacid])AFVQWLIAGGPSSGAPPPS-NH2) | 100 to 1000 | 107 | > 1000 | > 1000 | 0.1 to 1 | 104
CC[C@H](C)[C@H](NC(=O)[C@H](CC(C)C)NC(=O)[C@H](Cc1c[nH]c2ccccc12)NC(=O)[C@H](CCC(N)=O)NC(=O)[C@@H](NC(=O)[C@H](Cc1ccccc1)NC(=O)[C@H](C)NC(=O)[C@H](CCCCNC(=O)COCCOCCNC(=O)COCCOCCNC(=O)CC[C@H](NC(=O)CCCCCCCCCCCCCCCCCCC(=O)O)C(=O)O)NC(=O)[C@H](CCC(N)=O)NC(=O)[C@H](C)NC(=O)[C@@H](NC(=O)[C@H](CCCCN)NC(=O)[C@H](CC(=O)O)NC(=O)[C@H](CC(C)C)NC(=O)C(C)(C)NC(=O)[C@@H](NC(=O)[C@H](CO)NC(=O)[C@H](Cc1ccc(O)cc1)NC(=O)[C@H](CC(=O)O)NC(=O)[C@H](CO)NC(=O)[C@@H](NC(=O)[C@H](Cc1ccccc1)NC(=O)[C@@H](NC(=O)CNC(=O)[C@H](CCC(=O)O)NC(=O)CCNC(=O)C(C)(C)c1cc(F)cc(F)c1)[C@@H](C)O)[C@@H](C)O)[C@@H](C)CC)[C@@H](C)CC)C(C)C)C(=O)N[C@@H](C)C(=O)NCC(=O)NCC(=O)N1CCC[C@H]1C(=O)N[C@@H](CO)C(=O)N[C@@H](CO)C(=O)NCC(=O)N[C@@H](C)C(=O)N1CCC[C@H]1C(=O)N1CCC[C@H]1C(=O)N1CCC[C@H]1C(=O)N[C@@H](CO)C(N)=O [Compound 173] ({X53-βAla}-EGTFTSDYSI[Aib]LDKIAQK([AEEA-AEEA-γGlu-C20 diacid])AFVQWLIAGGPSSGAPPPS-NH2) | 1 to 10 | 103 | > 1000 | > 1000 | < 0.1 | 98
CC[C@H](C)[C@H](NC(=O)[C@H](CC(C)C)NC(=O)[C@H](Cc1c[nH]c2ccccc12)NC(=O)[C@H](CCC(N)=O)NC(=O)[C@@H](NC(=O)[C@H](Cc1ccccc1)NC(=O)[C@H](C)NC(=O)[C@H](CCCCNC(=O)COCCOCCNC(=O)COCCOCCNC(=O)CC[C@H](NC(=O)CCCCCCCCCCCCCCCCCCC(=O)O)C(=O)O)NC(=O)[C@H](CCC(N)=O)NC(=O)[C@H](C)NC(=O)[C@@H](NC(=O)[C@H](CCCCN)NC(=O)[C@H](CC(=O)O)NC(=O)[C@H](CC(C)C)NC(=O)C(C)(C)NC(=O)[C@@H](NC(=O)[C@H](CO)NC(=O)[C@H](Cc1ccc(O)cc1)NC(=O)[C@H](CC(=O)O)NC(=O)[C@H](CO)NC(=O)[C@@H](NC(=O)[C@](C)(Cc1ccccc1F)NC(=O)[C@@H](NC(=O)CNC(=O)[C@H](CCC(=O)O)NC(=O)CCNC(=O)C1(c2cccc(Cl)c2)CCCC1)[C@@H](C)O)[C@@H](C)O)[C@@H](C)CC)[C@@H](C)CC)C(C)C)C(=O)N[C@@H](C)C(=O)NCC(=O)NCC(=O)N1CCC[C@H]1C(=O)N[C@@H](CO)C(=O)N[C@@H](CO)C(=O)NCC(=O)N[C@@H](C)C(=O)N1CCC[C@H]1C(=O)N1CCC[C@H]1C(=O)N1CCC[C@H]1C(=O)N[C@@H](CO)C(N)=O [Compound 179] ({X62-βAla}-EGT[αMePhe(2-F)]TSDYSI[Aib]LDKIAQK([AEEA-AEEA-γGlu-C20 diacid])AFVQWLIAGGPSSGAPPPS-NH2) | 0.1 to 1 | 106 | < 1000 | > 1000 | 0.1 to 1 | 100
